Legend:
[1] = tested on: 5-LO (LTB4); experiment: Ex vivo assay: administration of compound, blood collection, challenge with A23187, LTB4 radioimmunoassay (test c); type: in vivo; details: oral
Experimental: c) An ex vivo assay system, which is a variation of test b) above, involving administration of a test compound (usually orally as the suspension produced when a solution of the test compound in dimethylsulphoxide is added to carboxymethylcellulose), blood collection, heparinisation, challenge with A23187 and radioimmunoassay of LTB4 and TxB2. This test provides an indication of the bioavailability of a test compound as an inhibitor of 5-LO or cyclooxygenase.

[2] = tested on: 5-LO (LTB4) in heparinised human blood; experiment: In vitro heparinised human blood challenged with A23187, LTB4 radioimmunoassay (test b); type: cell-based
Experimental: b) An in vitro assay system involving incubating a test compound with heparinised human blood, prior to challenge with the calcium ionophore A23187 and then indirectly measuring the inhibitory effects on 5-LO by assaying the amount of LTB4 using the specific radioimmunoassay described by Carey and Forder (F. Carey and R. A. Forder, Brit. J. Pharmacol. 1985, 84, 34P) which involves the use of a protein-LTB4 conjugate produced using the procedure of Young et alia (Prostaglandins, 1983, 26(4), 605-613). The effects of a test compound on the enzyme cyclooxygenase (which is involved in the alternative metabolic pathway for arachidonic acid and gives rise to prostaglandins, thromboxanes and related metabolites) may be measured at the same time using the specific radioimmunoassay for thromboxane B2 (TxB2) described by Carey and Forder (see above). This test provides an indication of the effects of a test compound against 5-LO and also cyclooxygenase in the presence of blood cells and proteins. It permits the selectivity of the inhibitory effect on 5-LO or cyclooxygenase to be assessed.

IC50 [2]: 500 nM
Compound: CCC1(c2cccc(Sc3ccc4ccccc4c3)c2)COC(C)(C)O1 (centres unmarked) [Example 1, 4-ethyl-2,2-dimethyl-4-[3-(naphth-2-ylthio)phenyl]-1,3-dioxolane]
ED50 [1]: 3 mg/kg

Source: patent publication US5137913A, “Diaryl ether cyclic ethers” (Imperial Chemical Industries PLC, priority 1989, dated 1992)
